Assay results taken from patent US6861417B2, “Pyridin-4-YL or pyrimidin-4-YL substituted pyrazines” (SmithKline Beecham Corporation, priority 1998, dated 2005).

Molecular target: T1, CSBP/p38 (Homo sapiens, UniProt Q16539)
T1 construct: made in house; host or cells: yeast
Test: CSBP Kinase Assay (transfer of 32P from ATP to EGFR-derived peptide T669)
Assay type: biochemical
Protocol: This assay measures the CSBP-catalyzed transfer of ^32P from [a-^32P]ATP to threonine residue in an epidermal growth factor receptor (EGFR)-derived peptide (T669) with the following sequence: […] (residues 661-681). (See Gallagher et al., “Regulation of Stress Induced Cytokine Production by Pyridinyl Imidazoles: Inhibition of CSPB Kinase”, BioOrganic & Medicinal Chemistry, 1997, 5, 49-64).
Reactions were carried in round bottom 96 well plate (from Corning) in a […]. Reactions contained (in final concentration): 25 mM Hepes, pH7.5; 10 mM MgCl2; 0.17 mM ATP (the Km[ATP] of p38 (see Lee et al., Nature […], n72 pg. 639-746 (December 1994) and Young et al., J. Biol. Chem. 272, n18 pg. 12116-12121 (May 1997)); 2.5 uCi of [g-32P]ATP; 0.2 mM sodium orthovanadate; 1 mM DTT; 0.1% BSA; 10% glycerol; 0.67 mM T669 peptide; and 2-4 nM of yeast-expressed, activated and purified p38. Reactions were initiated by the addition of [gamma-32P]Mg/ATP, and incubated for 25 min at 37 C. Inhibitors (dissolved in DMSO) were incubated with the reaction mixture on ice for 30 minutes prior to adding the 32P-ATP. Final DMSO concentration was 0.16%. […] Filters were washed with 75 mM phosphoric acids, and incorporated 32P was quantified using beta scintillation counter. […]

T1 sequence (Q16539 whole entry): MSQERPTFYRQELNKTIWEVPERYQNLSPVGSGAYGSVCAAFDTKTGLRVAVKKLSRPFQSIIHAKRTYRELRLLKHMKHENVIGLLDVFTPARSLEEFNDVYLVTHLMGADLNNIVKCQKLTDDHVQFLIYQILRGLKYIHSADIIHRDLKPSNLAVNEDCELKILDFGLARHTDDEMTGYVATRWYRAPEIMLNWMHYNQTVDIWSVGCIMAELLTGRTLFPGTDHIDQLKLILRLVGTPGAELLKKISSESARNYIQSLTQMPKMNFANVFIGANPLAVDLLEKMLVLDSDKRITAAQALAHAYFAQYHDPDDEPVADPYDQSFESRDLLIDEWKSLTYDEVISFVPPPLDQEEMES

| IC50 (CSBP kinase assay, called "this binding assay", read-out: positive inhibitory activity, IC50) [µM] | Structure (SMILES) | inhibitory activity upon retesting (upon retesting, "at this micromolar amount" (IC50 of <50 uM)) |
| --- | --- | --- |
| < 50 | Fc1ccc(-c2nccnc2-c2ccncc2)cc1 [Example 2, 2-(4-Fluorophenyl)-3-(pyridin-4-yl)pyrazine] |  |
|  | COc1ccc2cc(-c3nccnc3-c3ccncc3)ccc2c1 [Example 3, 2-(6-Methoxy)napthyl-2-yl-3-(4-pyridyl)pyrazine] | not found active |
